Data as given in patent US10052304B2, “Compositions and methods for cancer therapy” (UNIVERSITY OF IOWA RESEARCH FOUNDATION, priority 2015, dated 2018).

Columns and labels:
[1] = tested on: NSCLC cells; assay: Cellular labile iron pool (Calcein-AM flow cytometry), NSCLC cells; format: cell-based, human; conditions: increasing doses of ascorbate
Description: (§1) The labile iron pool (LIP) was visualized using the fluorescent dye Calcein-AM as previously described (Epsztejn et al., 1997) with modifications. After labeling, samples were divided into two flow cytometry sample tubes, to which 100 μM 2′,2′-bipyridyl (BIP) was added to one tube and analyzed by flow cytometry. BIP tubes were incubated for at least 15 minutes before analysis to allow for full chelation of intracellular labile iron. The LIP (A.U.)=MFIBIP−MFINoBIP was normalized against the control samples to calculate the relative labile iron pool.
(§2) The labile iron pool (LIP) was visualized using the fluorescent dye Calcein-AM as previously described with modifications (Epsztejn et al., 1997). Briefly, after sample treatment, cells were trypsinized, spun at 1,200 rpm for 5 min, and resuspended at approximately 1×10^6 cells mL-1 in 500 nM Calcein-AM in PBS. Samples were incubated for 15 min at 4% O2 in a humidity controlled environment (37° C., 5% CO2). Subsequently, samples were pelleted, washed in PBS, and resuspended in 1 mL PBS before dividing each sample into two flow cytometry sample tubes, to which 100 μM 2′,2′-bipyridyl (BIP) was added to one tube. Samples were kept at room temperature and analyzed on a LSR II Flow Cytometer (BD Biosciences; λex=488 nm, λem=515/20 nm). […]

[2] = tested on: ETC complex IV; assay: ETC complex IV activity after ascorbate exposure; format: cell-based, human; conditions: NSCLC cell lysates
Description: (§3) Exponentially growing cells were scraped and frozen as dry pellets until assayed for total activity. Aconitase activity was measured as the rate of appearance of NADPH (at 340 nm; Beckman DU 800 spectrophotometer, Brea, Calif.) for 45 min during the reaction of 200 μg total sample protein with 200 μM NADP^+ and 10 U isocitrate dehydrogenase as previously described (Case et al., 2011). Maximal ETC complex activity was measured as previously described (Birch-Machin et al., 1994). Complex I activity was quantified as the rate of rotenone-inhibitable NADH oxidation (320 nm; c=6.22 mM^−1 cm^−1). Complex II activity as the difference in the rate of DCIP reduction in the presence and absence of succinate (at 600 nm; ε=19.1 mM^−1 cm^−1). Complex IV activity was assayed as the rate of oxidation of cytochrome c ([…]; ε=19.6 mM^−1 cm^−1). Rates of activities were normalized to total protein by Lowry.
(§4) Exponentially growing cells were scraped and frozen as dry pellets until assayed for protein content (Lowry) and maximal ETC complex activity as previously described (Birch-Machin et al., 1994). Briefly, dry cell pellets were resuspended in 20 mM potassium phosphate buffer and sonicated 3×10 s each. Rates of activities were normalized to total protein. Complex I activity was quantified as the rate of rotenone-inhibitable NADH oxidation (320 nm; ε=6.22 mM-1 cm-1). […]

[3] = tested on: aconitase; assay: Total cellular aconitase activity after ascorbate exposure; format: cell-based, human; conditions: 15 pmol cell^−1 ascorbate for 1 h, NSCLC cell lysates
Description: as §3
Exponentially growing cells were scraped and frozen as dry pellets until assayed for total aconitase activity adapted from as previously described (Case et al., 2011). […] Protein was quantified by the Lowry method (Lowry et al., 1951). Aconitase activity was measured as the rate of appearance of NADPH (at 340 nm; Beckman DU 800 spectrophotometer, Brea, Calif.) for 45 min during the reaction of 200 μg total sample protein with 200 μM NADP+ and 10 U isocitrate dehydrogenase.

[4] = tested on: OPM2; assay: Colony formation on soft agar, OPM2 myeloma cells; format: cell-based, human; conditions: 1 h treatment, colonies after 10-14 days
Text: A two-layer agar system was used, and colonies were visualized after 10-14 days.

[5] = tested on: NSCLC cells; assay: Intracellular H2O2 with PeroxyOrange-1, NSCLC cells; format: cell-based, human; conditions: ascorbate 15 pmol cell^−1
Description: To visualize intracellular H2O2 levels, the selectively sensitive fluorescent probe PeroxyOrange-1 was utilized as previously described with modifications (Dickinson et al., 2010). 1×10^5 cells were plated and grown in their respective media for 48 h. The complete protocol was conducted in the dark with minimal ambient lighting. Cells were washed with PBS and incubated with 10 uM PO-1 in phenol red free RPMI supplemented with HBE growth supplements for 1 h at 37° C. Cells were then washed in PBS and placed back in phenol red free RPMI supplemented with HBE growth supplements. […] At times indicated, cells were placed on ice for the remainder of the protocol, washed, and trypsinized with phenol red free 0.5% trypsin. After 15 min, cells still attached were scraped and all cells were collected in 15 mL conical vials containing PBS+10% FBS to neutralize the trypsin reaction. Cells were spun at 1200 rpm for 5 min at 4° C., resuspended in 300-500 uL PBS and were run on a LSR II Flow Cytometer (BD Biosciences) with λex=561 nm, λem=585/20 nm. The mean fluorescence intensity (MFI) was analyzed (FlowJo™) and corrected for autoflourescence against unlabeled cells. Normalized MFI was calculated by comparing MFI for a given treatment group against control.

[6] = tested on: ferritin; conditions: read-out: Km of ascorbate-mediated Fe^+2 release from ferritin; cited from earlier work
[7] = tested on: NHAs; assay: Cellular labile iron pool (Calcein-AM flow cytometry), NHAs; format: cell-based, human; conditions: increasing doses of ascorbate
Description: as §1, §2

[8] = tested on: ETC complex I; assay: ETC complex I activity after ascorbate exposure; format: cell-based, human; conditions: 15 pmol cell^−1 ascorbate for 1 h, NSCLC cell lysates
Description: as §3, §4

## O=C1O[C@H]([C@@H](O)CO)C(O)=C1O [ascorbate, L-ascorbic acid]
[1]
  cellular LIP after ascorbate: significant dose-dependent ascorbate-induced increases in cellular LIP
[2]
  ETC complex IV activity: no inhibition of activity
[3]
  aconitase activity: inactivation
[4]
  ascorbate dose giving complete growth inhibition (colony formation): ≥ 10 pmol/cell
[5]
  steady-state levels of H2O2 (PeroxyOrange-1): significantly increased from baseline
[6]
  Km: 1300 µM
[7]
  cellular LIP after ascorbate: not seen
[8]
  ETC complex I activity: inactivation
